Data: article PMC2358886, “Evolution of pharmacologic specificity in the pregnane X receptor” (BMC Evolutionary Biology, 2008)
Read-outs that look alike come from different tables or passages of the source.

Columns and labels:
rabbit PXR = molecular target: T1, rabbit PXR (Oryctolagus cuniculus, UniProt Q9TU02); experiment: PXR activation luciferase reporter assay, rabbit PXR; details: for Rabbit PXR efficacy, ε: relative to 50 μM 5α-pregnan-3,20-dione, assigned an efficacy of 1.0; for Rabbit PXR Activity: -log(EC50), EC50 in molar units
T1 sequence (Q9TU02 1-411): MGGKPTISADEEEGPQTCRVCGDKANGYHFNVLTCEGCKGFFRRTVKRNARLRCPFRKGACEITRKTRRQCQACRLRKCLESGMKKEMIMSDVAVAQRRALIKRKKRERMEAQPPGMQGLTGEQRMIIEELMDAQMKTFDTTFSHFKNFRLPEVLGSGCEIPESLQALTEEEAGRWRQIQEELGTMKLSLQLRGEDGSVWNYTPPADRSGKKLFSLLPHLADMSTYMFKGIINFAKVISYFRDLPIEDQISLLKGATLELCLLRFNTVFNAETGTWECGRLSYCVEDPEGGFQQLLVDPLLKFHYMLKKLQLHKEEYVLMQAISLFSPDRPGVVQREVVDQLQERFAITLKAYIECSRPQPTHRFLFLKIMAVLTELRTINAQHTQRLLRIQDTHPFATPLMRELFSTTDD

rat PXR = molecular target: T2, rat PXR (Rattus norvegicus, UniProt Q9R1A7); details: for Rat PXR Activity: -log(EC50), EC50 in molar units
T2 sequence (Q9R1A7 1-431): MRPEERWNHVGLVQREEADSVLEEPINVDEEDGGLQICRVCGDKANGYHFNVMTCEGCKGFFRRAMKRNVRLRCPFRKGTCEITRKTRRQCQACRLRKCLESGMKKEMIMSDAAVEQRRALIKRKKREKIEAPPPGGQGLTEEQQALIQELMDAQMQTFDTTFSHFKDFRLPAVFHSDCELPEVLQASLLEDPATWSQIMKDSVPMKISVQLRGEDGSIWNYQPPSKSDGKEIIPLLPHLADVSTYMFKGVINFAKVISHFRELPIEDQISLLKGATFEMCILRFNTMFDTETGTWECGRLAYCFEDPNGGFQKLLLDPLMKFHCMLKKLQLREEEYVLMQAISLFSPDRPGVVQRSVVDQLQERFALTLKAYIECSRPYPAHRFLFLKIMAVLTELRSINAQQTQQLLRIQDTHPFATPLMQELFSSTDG

mouse PXR = molecular target: T3, mouse PXR (Mus musculus, UniProt O54915); details: for Mouse PXR Activity: -log(EC50), EC50 in molar units
T3 sequence (O54915 1-431): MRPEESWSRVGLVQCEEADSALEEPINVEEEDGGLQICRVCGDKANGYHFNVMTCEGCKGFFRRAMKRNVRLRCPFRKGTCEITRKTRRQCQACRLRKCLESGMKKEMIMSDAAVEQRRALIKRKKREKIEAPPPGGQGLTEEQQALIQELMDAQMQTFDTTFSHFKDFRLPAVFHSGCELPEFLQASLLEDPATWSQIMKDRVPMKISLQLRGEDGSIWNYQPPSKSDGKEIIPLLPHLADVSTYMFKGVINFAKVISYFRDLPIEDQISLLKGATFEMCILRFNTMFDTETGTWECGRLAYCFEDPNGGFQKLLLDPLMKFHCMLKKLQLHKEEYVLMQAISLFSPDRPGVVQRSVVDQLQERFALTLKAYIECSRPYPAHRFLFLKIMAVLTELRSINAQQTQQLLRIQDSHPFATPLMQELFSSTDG

chicken PXR = molecular target: T4, chicken PXR (Gallus gallus, UniProt Q9DFH3)
T4 sequence (Q9DFH3 1-391): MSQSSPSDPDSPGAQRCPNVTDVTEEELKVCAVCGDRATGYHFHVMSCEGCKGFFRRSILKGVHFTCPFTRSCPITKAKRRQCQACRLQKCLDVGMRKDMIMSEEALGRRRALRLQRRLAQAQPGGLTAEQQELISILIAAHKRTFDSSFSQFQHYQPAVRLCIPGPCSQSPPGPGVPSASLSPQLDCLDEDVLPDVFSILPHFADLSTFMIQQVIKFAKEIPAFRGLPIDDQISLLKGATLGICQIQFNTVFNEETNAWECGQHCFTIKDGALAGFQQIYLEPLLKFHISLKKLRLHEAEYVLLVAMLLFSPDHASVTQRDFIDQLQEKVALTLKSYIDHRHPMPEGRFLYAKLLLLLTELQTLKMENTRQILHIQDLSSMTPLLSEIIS

zebrafish PXR = molecular target: T5, zebrafish PXR (Danio rerio, UniProt A5WYG8); details: for zfPXR Activity: -log(EC50), EC50 in molar units, activation of zebrafish PXR
T5 sequence (A5WYG8 144-430): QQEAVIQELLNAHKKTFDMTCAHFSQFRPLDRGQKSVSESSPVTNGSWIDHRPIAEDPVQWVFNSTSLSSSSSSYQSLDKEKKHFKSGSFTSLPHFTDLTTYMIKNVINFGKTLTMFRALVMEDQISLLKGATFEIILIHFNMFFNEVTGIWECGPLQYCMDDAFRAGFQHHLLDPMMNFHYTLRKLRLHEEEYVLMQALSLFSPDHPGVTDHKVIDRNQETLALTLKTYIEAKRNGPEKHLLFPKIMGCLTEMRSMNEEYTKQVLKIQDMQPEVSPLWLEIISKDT

HepG2 cells [1] = experiment: Toxicity assays in HepG2 cells (MTT and alamar blue reduction); details: lowest concentration that produced significant toxicity in the HepG2 cells
human PXR [2] = molecular target: T6, human PXR (Homo sapiens, UniProt O75469); experiment: PXR activation luciferase reporter assay, human PXR in HepG2-NTCP cells; details: for hPXR Activity: -log(EC50), EC50 in molar units, activation of human PXR
T6 sequence (O75469 1-434): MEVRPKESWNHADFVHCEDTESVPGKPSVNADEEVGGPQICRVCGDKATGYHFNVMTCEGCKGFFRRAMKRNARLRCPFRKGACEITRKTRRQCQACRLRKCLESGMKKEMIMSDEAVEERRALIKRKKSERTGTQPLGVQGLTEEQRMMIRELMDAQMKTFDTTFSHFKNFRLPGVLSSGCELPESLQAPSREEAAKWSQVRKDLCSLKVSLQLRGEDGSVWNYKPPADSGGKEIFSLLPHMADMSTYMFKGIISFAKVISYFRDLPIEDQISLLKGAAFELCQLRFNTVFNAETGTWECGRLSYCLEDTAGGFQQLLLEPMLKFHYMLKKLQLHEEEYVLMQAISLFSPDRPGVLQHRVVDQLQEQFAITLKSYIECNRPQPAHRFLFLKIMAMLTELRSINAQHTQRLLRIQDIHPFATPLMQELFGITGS

HepG2 cells [3] = system: HepG2 cells
human PXR [4] = molecular target: T6, human PXR
[5] = -log(EC50), EC50 in molar units

Structure (SMILES) | Rat PXR Activity (rat PXR) | Mouse PXR Activity (mouse PXR) | Rabbit PXR Activity (rabbit PXR) | zfPXR Activity (zebrafish PXR) | hPXR Activity (human PXR [2]) | Chicken PXR Activity (chicken PXR; [5]) | Toxicity (HepG2 cells [3]) | other results
C[C@H](CCC(=O)NCCS(=O)(=O)O)[C@H]1CC[C@H]2[C@@H]3CC[C@@H]4C[C@H](O)CC[C@]4(C)[C@H]3C[C@H](O)[C@]12C [BI010, Taurodeoxycholic acid] |  |  |  |  |  |  |  | EC50 (rabbit PXR): 14.5 µM; Rabbit PXR efficacy, ε (rabbit PXR): 0.15
C[C@H](CCC(=O)O)[C@H]1CC[C@H]2[C@@H]3[C@@H](O)[C@@H](O)[C@@H]4C[C@H](O)CC[C@]4(C)[C@H]3CC[C@]12C [BI019, β-Muricholic acid] | No effect | No effect |  |  |  |  |  | 
C[C@H](CCC(=O)NCC(=O)O)[C@H]1CC[C@H]2[C@@H]3[C@H](O)C[C@@H]4C[C@H](O)CC[C@]4(C)[C@H]3C[C@H](O)[C@]12C [BI021, Glycocholic acid] | No effect | No effect |  |  |  |  |  | Chicken PXR Activity (chicken PXR): No effect
C[C@H](CCC(=O)O)[C@H]1CC[C@H]2[C@@H]3C(=O)C[C@@H]4C[C@H](O)CC[C@]4(C)[C@H]3C[C@H](O)[C@]12C [BI042, 5β-Cholanic acid-3α,12α-diol-7-one] |  |  | 4.31 | None | 4.24 |  |  | Rabbit PXR efficacy, ε (rabbit PXR): 1.55; Toxicity (HepG2 cells [1]): None; hPXR Efficacy (human PXR [2]; relative to 10 μM rifampicin, assigned an efficacy of 1.0): 0.49
C[C@H](CCC(=O)NCCS(=O)(=O)O)[C@H]1CC[C@H]2[C@@H]3[C@@H](O)[C@@H](O)[C@@H]4C[C@H](O)CC[C@]4(C)[C@H]3CC[C@]12C [BI046, 5β-Cholanic acid-3α,6β,7β-triol N-(2-sulfoethyl)-amide] | No effect | No effect | No effect | None | None | No effect |  | Toxicity (HepG2 cells [1]): None
CC(C)CCC[C@@H](C)[C@H]1CC[C@H]2[C@@H]3[C@H](O)C=C4C[C@@H](O)CC[C@]4(C)[C@H]3CC[C@]12C [BI047, 7α-Hydroxycholesterol] | No effect | No effect | No effect | None | None | No effect | None | 
c1ccc2c(c1)cc1ccc3cccc4ccc2c1c34 [MI3, Benzo [a]pyren] | 4.85 | 4.86 | No effect | 4.00 | 4.75 | 4.40 | 100 µM | zfPXR Efficacy (zebrafish PXR): 0.06; Rat PXR efficacy, ε (rat PXR): 0.45; Chicken PXR efficacy, ε (chicken PXR): 0.50; Mouse PXR efficacy, ε (mouse PXR): 0.94; hPXR Efficacy (human PXR [4]): 0.55
CC(=O)[C@H]1[C@H](C#N)C[C@H]2[C@@H]3CC=C4C[C@@H](O)CC[C@]4(C)[C@H]3CC[C@@]21C [PR13, 5-Pregnen-16α-cyano-3β-ol-20-one] | 6.20 (ε = 1.0) | 6.41 (ε = 1.0) |  | None | None |  | None | Rat PXR efficacy, ε (rat PXR): 6.20 (ε = 1.0); Mouse PXR efficacy, ε (mouse PXR): 6.41 (ε = 1.0)
